Experimental data from article PMC4472782, “Antibacterial Characterization of Novel Synthetic Thiazole Compounds against Methicillin-Resistant Staphylococcus pseudintermedius” (PLoS ONE, 2015).
≈ marks a conversion by molar mass, not a printed value. Structures can show the parent of a compound that is named as a salt. Where two headings read alike, the source gives them in different places. Blank lines part the entries; values can stand above or below the molecule they belong to.

How the values were obtained:
[1] = system: methicillin-sensitive Staphylococcus pseudintermedius; assay: MIC by broth microdilution against MSSP clinical isolates; assay type: cell-based; conditions: nine MSSP isolates, triplicate
Procedure: (§1) Fifteen isolates of S. pseudintermedius (nine MSSP and six MRSP), identified at the Indiana Animal Disease Diagnostic Laboratory from specimens collected from dogs admitted to the small animal teaching hospital at Purdue University, were included in the study. The specimens were not collected specifically for this research study but were obtained from patients admitted to the hospital for treatment. Clinical specimens were inoculated onto 5% sheep blood agar and incubated at 35°C for 18–24 hours. Standard methods including examination of colony morphology and hemolysis and biochemical tests such as tube coagulase, Voges-Proskauer (VP) and fermentation tests for maltose, trehalose and lactose, were used in addition to matrix-assisted laser desorption ionization time of flight mass spectrometry to identify isolates. Antimicrobial susceptibility was determined by broth microdilution using the SensiTitre (Thermofisher Scientific).
(§2) Bacteria were prepared in phosphate-buffered saline (PBS) until a McFarland standard of 0.5 was achieved. The solution was subsequently diluted 1:300 in Mueller-Hinton broth (MHB) to reach a starting inoculum of 1 × 10^5 colony-forming units (CFU/mL). Bacteria were then transferred to a 96-well microtiter plate. Thiazole compounds and antibiotics were added (in triplicate) to wells in the first row of the microtiter plate and then serially diluted along the vertical axis. […] The MIC was categorized as the concentration where there was no visible growth of bacteria observed.

[2] = human liver microsomes; cited from earlier work
[3] = system: methicillin-resistant Staphylococcus pseudintermedius; assay: MBC determination against MRSP clinical isolates; assay type: cell-based; conditions: six MRSP isolates
Procedure: (§3) The MBC was determined by plating 5 μL from wells on the 96-well microtiter plate (where the MIC was determined) where no growth was observed onto Tryptic soy agar (TSA) plates. […] The MBC was categorized as the concentration where ≥99% reduction in bacterial cell count was observed.

[4] = system: murine macrophage cell line (J774.A1); assay: In vitro cytotoxicity analysis (MTS assay); assay type: cell-based; conditions: 10 μg/mL, J774.A1, two hours
Procedure: Compounds were assayed at concentrations of 5 μg/mL, 10 μg/mL, 20 μg/mL, and 40 μg/mL against a murine macrophage cell line (J774.A1) (ATCC TIB-67, American Type Culture Collection (ATCC), Manassas, VA, USA) to determine the potential toxic effect in vitro. Cells were cultured in Dulbeco’s modified Eagle’s medium (Sigma-Aldrich, St. Louis, MO, USA) with 10% fetal bovine serum (USA Scientific, Inc.) at 37°C with 5% CO2. Controls received DMSO alone at a concentration equal to that in drug-treated cell samples. The cells were incubated with the compounds in a 96-well plate at 37°C and 5.0% CO2 for two hours prior to addition of the assay reagent MTS 3-(4,5-dimethylthiazol-2-yl)-5-(3-carboxymethoxyphenyl)-2-(4-sulfophenyl)-2H-tetrazolium) (Promega, Madison, WI, USA). Absorbance readings were taken using a kinetic ELISA microplate reader (Molecular Devices, Sunnyvale, CA, USA). The quantity of viable cells after treatment with each compound was expressed as a percentage of the control, DMSO.
All statistical analyses were performed with GraphPad Prism 6.0 (GraphPad Software, La Jolla, CA). Data generated from cytotoxicity analysis of the thiazole compounds against J774.A1 cells and the 260 and 280 nm cell leakage analysis were analyzed using one-way ANOVA, with post hoc Tukey's multiple comparisons test (P < 0.05).

[5] = system: MRSP SP3; assay: Checkerboard assay of thiazole compounds with oxacillin; assay type: cell-based, Staphylococcus pseudintermedius
Procedure: The relationship between the thiazole compounds and oxacillin was assessed via a standard checkerboard assay. Bacteria (MRSP SP3) equivalent to a McFarland standard of 0.5 were prepared in PBS. The bacteria were next diluted in MHB to achieve a starting cell density of 1 × 10^5 CFU/mL. MHB was transferred to all wells of a 96-well microtiter plate. […] Oxacillin was serially diluted along the abscissa of the microtiter plate while the thiazole compound was serially diluted along the ordinate. The plate was incubated for 22–24 hours at 37°C. The MIC of the test compound in combination with oxacillin was determined as the lowest concentration of each compound/antibiotic where no visible growth of bacteria was observed. The fractional inhibitory concentration index (ƩFIC) was calculated for each combination as described previously. A synergistic relationship was classified as an FIC index less than or equal to 0.5. […]

[6] = system: methicillin-resistant Staphylococcus pseudintermedius; assay: MIC by broth microdilution against MRSP clinical isolates; assay type: cell-based; conditions: six MRSP isolates, triplicate
Procedure: as §1, §2

[7] = system: methicillin-sensitive Staphylococcus pseudintermedius; assay: MBC determination against MSSP clinical isolates; assay type: cell-based; conditions: nine MSSP isolates
Procedure: as §3

[8] = system: MRSP SP3; assay: Time-kill analysis against MRSP; assay type: cell-based, Staphylococcus pseudintermedius; conditions: 4 × MIC, MRSP SP3, 24 hour incubation at 37°C
Procedure: MRSP SP3 cells in late logarithmic growth phase were diluted to ~1 × 10^6 CFU/mL and exposed to concentrations equivalent to 4 × MIC (in triplicate) of thiazole compounds 1–6 and rifampicin in MHB. Samples (20 μL) were collected after 0, 2, 4, 6, 8, 10, 12, and 24 hours of incubation at 37°C and subsequently serially diluted in PBS. Bacteria were then transferred to TSA plates and incubated at 37°C for 20–24 hours before viable CFU/mL values were determined.

[9] = set-up: method as in PMID 24387054; conditions: phosphate-buffered saline; cited from earlier work
[10] = system: MRSP SP3; assay: Post-antibiotic effect against MRSP; assay type: cell-based, Staphylococcus pseudintermedius; conditions: 4 × MIC for one hour
Procedure: A tube containing untreated bacterial cells served as a control. Afterward, the compound/antibiotic was washed out by diluting bacteria 1:1000 in MHB. Counts of CFU for all cultures were obtained after washing. Aliquots (100 μL) of bacteria were removed every hour (for 10 hours), serially diluted in PBS, and plated on TSA plates. TSA plates were incubated for 20 hours at 37°C before CFU values were determined.

[11] = Kinetic (turbidimetric) solubility in PBS; assay type: physicochemical; conditions: phosphate-buffered saline; highest concentration with no precipitate
Procedure: The absorbance of the PBS-containing plate was measured prior to addition of the test agents to determine the background absorbance. After 2 hours, the presence of precipitate was detected by turbidity (absorbance at 540 nm).

[12] = system: MRSP SP3; assay: Re-sensitization of MRSP to oxacillin, broth microdilution; assay type: cell-based; conditions: Staphylococcus pseudintermedius, clinical isolate identified as MRSP, read-out: MIC of oxacillin alone
Procedure: MHB was inoculated with MRSP SP3 (5×10^5 CFU/mL), as has been previously described. Aliquots (5 mL) of the bacterial suspension were divided into microcentrifuge tubes. The thiazole compounds tested (at ½ × MIC) were introduced into each tube. After sitting at room temperature for 30 minutes, 1 mL samples from each tube were transferred to a new centrifuge tube prior to addition of oxacillin (at a concentration equivalent to its MIC). Using a 96-well microtiter plate, rows 2–12 were filled with the remaining 4 mL bacterial suspension (containing the thiazole compound). Aliquots (200 μL) from tubes containing both the thiazole compound and oxacillin were transferred to row 1 of the 96-well plate. After aspirating contents in the first row 4–6 times, 100 μL was transferred from wells in row 1 to row 2. This process was repeated to dilute the remaining wells containing no antibiotic. Untreated bacteria served as a control. […] A fold reduction was calculated by comparing the MIC of the antibiotic alone compared to the MIC of the antibiotic given in combination with the thiazole compounds.

MIC50 ([1]; lowest concentration inhibiting growth in 50% of isolates): 0.35 µg/mL (≈ 1.06 µM) | MIC ([1]; read-out: MIC Range): 0.17 to 1.38 µg/mL (≈ 0.516 to 4.19 µM) | MIC50 ([6]; Staphylococcus pseudintermedius, read-out: MIC50): 0.69 µg/mL (≈ 2.09 µM) | MIC Range [6]: 0.35 to 1.38 µg/mL
Structure (SMILES): CCCCc1ccc(-c2nc(C)c(/C(C)=N/NC(=N)N)s2)cc1 [Compound 1]
half-life [2]: under 30 minutes | MBC ([3]; Staphylococcus pseudintermedius, read-out: MBC50): 0.92 µg/mL (≈ 2.79 µM) | MBC Range [3]: 0.35 to 1.38 µg/mL | toxicity to murine macrophage cells (MTS assay) [4]: toxic | relationship with oxacillin ([5]; checkerboard assay): synergistic | ƩFIC ([5]; combination with oxacillin, ≤ 0.5 synergistic, > 0.5 to ≤ 4.0 indifference, > 4 antagonistic): 0.19 | MBC ([7]; Staphylococcus pseudintermedius, lowest concentration that killed 50% of isolates, read-out: MBC50): 0.46 µg/mL (≈ 1.4 µM) | MBC Range [7]: 0.17 to 2.77 µg/mL | time required to completely eliminate MRSP [8]: four hours | solubility limit [9]: 20.56 µg/mL (≈ 62.4 µM) | Post-antibiotic Effect [10]: >9 h

Structure (SMILES): COC(=O)[C@H]1[C@H]2C[C@@H]3c4[nH]c5cc(OC)ccc5c4CCN3C[C@H]2C[C@@H](OC(=O)c2cc(OC)c(OC)c(OC)c2)[C@@H]1OC [Reserpine, reference compound]
solubility limit [11]: 19.05 µg/mL (≈ 31.3 µM)

Structure (SMILES): Cc1onc(-c2ccccc2)c1C(=O)N[C@@H]1C(=O)N2[C@@H]1SC(C)(C)[C@@H]2C(=O)O [oxacillin, oxacillin sodium salt monohydrate]
MIC [12]: 128 µg/mL
